Assay results taken from patent US8604024B2, “Compounds for the reduction of beta-amyloid production” (Bristol-Myers Squibb Company, priority 2011, dated 2013).
Counter-ions that a name gives are not always drawn.

Tested on: Aβ1-42 production in H4 cells stably transfected with APP751 containing the Swedish mutation
Assay: Cellular assay for inhibition of Aβ1-42 production (H4 APP751 SWE clone 8.20)
Format: cell-based
Conditions: 19 h, H4 APP751 SWE clone 8.20 cells, 19 h incubation; read-out: Aβ42 cellular IC50
Protocol: Cellular Assays for Inhibition of Aβ1-40 and Aβ1-42 Production
H4 cells stably transfected with APP751 containing the Swedish mutation (H4 APP751 SWE clone 8.20, developed at BMS) were maintained in log phase through twice weekly passage at a 1:20 split. […] Following incubation for 19 h in 5% CO2 at 37° C., plates were briefly centrifuged (1000 rpm, 5 min). A 10 μl aliquot from each well was transferred to a second assay plate (Costar 3709) for Aβ40 measurements. Antibody cocktails were freshly prepared by dilution into 40 mM Tris-HCl (pH 7.4) with 0.2% BSA and added to assay plates. For Aβ42 measurements, antibodies specific for the Aβ42 neoepitope (565, developed at BMS; conjugated to the Wallac reagent (Perkin Elmer)) and the N-terminal sequence of Aβ peptide (26D6, developed at SIBIA; conjugated to APC (Perkin Elmer)) were mixed and 20 μl of the mixture was added to each well of the incubated cell plate yielding a final concentration of 0.8 ng/well 565 and 75 ng/well 26D6. For the Aβ40 measurements, antibodies specific for the Aβ40 neoepitope (TSD, developed at BMS; conjugated to the Wallac reagent (Perkin Elmer)) and 26D6 as described above were mixed and 20 μl of the mixture was added to the 10 μl aliquots which had been removed previously from the cell plate yielding a final concentration of 1.6 ng/well TSD and 17.5 ng/well 26D6. Assay plates containing antibodies were sealed with aluminum foil and incubated overnight at 4° C. Signal was determined using a Viewlux counter (Perkin Elmer) and IC50 values determined using curve fitting in CurveMaster (Excel Fit based).

| Structure (SMILES) | IC50 |
| --- | --- |
| NC1=N[C@@H]2c3cc(-c4cncnc4)ccc3CCC[C@@H]2CS1 (relative stereo) [Example 1, rel-(4aS,11bS)-10-Pyrimidin-5-yl-4,4a,5,6,7,11b-hexahydro-3-thia-1-aza-dibenzo[a,c]cyclohepten-2-ylamine, bis(2,2,2-trifluoroacetate)] | 5.2 µM |
| C[C@]12N=C(N)SC[C@H]1CCCc1ccc(-c3cncnc3)cc12 (relative stereo) [Example 2, rel-(4aS,11bS)-11b-Methyl-10-pyrimidin-5-yl-4,4a,5,6,7,11b-hexahydro-3-thia-1-aza-dibenzo[a,c]cyclohepten-2-ylamine, bis(2,2,2-trifluoroacetate)] | 3.4 µM |
| C[C@]12N=C(N)SC[C@H]1CCCc1ccc(NC(=O)c3ccc(Cl)cn3)cc12 (relative stereo) [Example 3, 5-Chloro-pyridine-2-carboxylic acid (rel-(4aS,11bS)-2-amino-11b-methyl-4,4a,5,6,7,11b-hexahydro-3-thia-1-aza-dibenzo[a,c]cyclohepten-10-yl)-amide, 2,2,2-trifluoroacetate] | 0.034 µM |
| NC1=N[C@@H]2c3cc(-c4cncnc4)cc(F)c3OCC[C@@H]2CS1 (relative stereo) [Example 4, rel-(4aS,11bS)-8-fluoro-10-pyrimidin-5-yl-4a,5,6,11b-tetrahydro-4H-7-oxa-3-thia-1-aza-dibenzo[a,c]cyclohepten-2-ylamine] | > 30 µM |
| C[C@]12N=C(N)SC[C@H]1CCc1ccc(-c3cncnc3)cc12 (relative stereo) [Example 5, rel-(4aS,10bS)-10b-Methyl-9-(pyrimidin-5-yl)-4a,5,6,10b-tetrahydro-4H-naphtho[1,2-d][1,3]thiazin-2-amine, bis(2,2,2-trifluoroacetate)] | 4.6 µM |
| C[C@]12N=C(N)SC[C@H]1CCc1ccc(-c3cncc(Cl)c3)cc12 (relative stereo) [Example 6, rel-(4aS,10bS)-9-(5-Chloropyridin-3-yl)-10b-methyl-4a,5,6,10b-tetrahydro-4H-naphtho[1,2-d][1,3]thiazin-2-amine bis(2,2,2-trifluoroacetate)] | 2.6 µM |
| C[C@]12N=C(N)SC[C@H]1CCc1ccc(NC(=O)c3ccc(Cl)cn3)cc12 (relative stereo) [Example 7, rel-N-((4aS,10bS)-2-Amino-10b-methyl-4a,5,6,10b-tetrahydro-4H-naphtho[1,2-d][1,3]thiazin-9-yl)-5-chloropicolinamide, 2,2,2-trifluoroacetate] | 1.1 µM |
| C[C@]12N=C(N)SC[C@H]1CCc1ccc(NC(=O)c3ncc(F)cc3F)cc12 (relative stereo) [Example 8, rel-N-((4aS,10bS)-2-Amino-10b-methyl-4a,5,6,10b-tetrahydro-4H-naphtho[1,2-d][1,3]thiazin-9-yl)-3,5-difluoropicolinamide, 2,2,2-trifluoroacetate] | 3.1 µM |
| C[C@]12N=C(N)SC[C@H]1CCc1ccc(NC(=O)c3ccc(F)cn3)cc12 (relative stereo) [Example 9, rel-N-((4aS,10bS)-2-amino-10b-methyl-4a,5,6,10b-tetrahydro-4H-naphtho[1,2-d][1,3]thiazin-9-yl)-5-fluoropicolinamide, 2,2,2-trifluoroacetate] | 2.1 µM |
| C[C@]12N=C(N)SC[C@H]1CCc1ccc(Br)cc12 (relative stereo) [Example 10, rel-(4aS,10bS)-9-Bromo-10b-methyl-4a,5,6,10b-tetrahydro-4H-naphtho[1,2-d][1,3]thiazin-2-amine] | 13 µM |
| COc1cncc(-c2ccc3c(c2)[C@@]2(C)N=C(N)SC[C@H]2CCC3)c1 (relative stereo) [Example 11, rel-(4aS,11bS)-10-(5-methoxypyridin-3-yl)-11b-methyl-4,4a,5,6,7,11b-hexahydrobenzo[6,7]cyclohepta[1,2-d][1,3]thiazin-2-amine, bis(2,2,2-trifluoroacetate)] | 3.4 µM |
| COc1cccc(-c2ccc3c(c2)[C@@]2(C)N=C(N)SC[C@H]2CCC3)c1 (relative stereo) [Example 12, rel-(4aS,11bS)-10-(3-methoxyphenyl)-11b-methyl-4,4a,5,6,7,11b-hexahydrobenzo[6,7]cyclohepta[1,2-d][1,3]thiazin-2-amine, 2,2,2-trifluoroacetate] | 3.4 µM |
| C[C@]12N=C(N)SC[C@H]1CCCc1ccc(-c3cncc(Cl)c3)cc12 (relative stereo) [Example 13, rel-(4aS,11bS)-10-(5-Chloropyridin-3-yl)-11b-methyl-4,4a,5,6,7,11b-hexahydrobenzo[6,7]cyclohepta[1,2-d][1,3]thiazin-2-amine, bis(2,2,2-trifluoroacetate)] | 3.1 µM |
| C[C@]12N=C(N)SC[C@H]1CCCc1ccc(-c3cncc(F)c3)cc12 (relative stereo) [Example 14, rel-(4aS,11bS)-10-(5-fluoropyridin-3-yl)-11b-methyl-4,4a,5,6,7,11b-hexahydrobenzo[6,7]cyclohepta[1,2-d][1,3]thiazin-2-amine, bis(2,2,2-trifluoroacetate)] | 2.1 µM |
| CC#Cc1cncc(-c2ccc3c(c2)[C@@]2(C)N=C(N)SC[C@H]2CCC3)c1 (relative stereo) [Example 15, rel-(4aS,11bS)-11b-Methyl-10-(5-(prop-1-yn-1-yl)pyridin-3-yl)-4,4a,5,6,7,11b-hexahydrobenzo[6,7]cyclohepta[1,2-d][1,3]thiazin-2-amine, bis(2,2,2-trifluoroacetate)] | 3.6 µM |
| C[C@]12N=C(N)SC[C@H]1CCCc1ccc(Br)cc12 (relative stereo) [Example 16] | 2.5 µM |
| C[C@]12N=C(N)SC[C@H]1COc1cc(F)c(-c3cncnc3)cc12 (relative stereo) [Example 17, rel-(4aR,10bS)-8-Fluoro-10b-methyl-9-(pyrimidin-5-yl)-4,4a,5,10b-tetrahydrochromeno[4,3-d][1,3]thiazin-2-amine, bis(2,2,2-trifluoroacetate)] | 3.2 µM |
| C[C@]12N=C(N)SC[C@H]1COc1cc(F)c(NC(=O)c3ccc(Cl)cn3)cc12 (relative stereo) [Example 18, rel-N-((4aR,10bS)-2-Amino-8-fluoro-10b-methyl-4,4a,5,10b-tetrahydrochromeno[4,3-d][1,3]thiazin-9-yl)-5-chloropicolinamide, 2,2,2-trifluoroacetate] | 6.1 µM |
| C[C@]12N=C(N)SC[C@H]1CCc1ccc(-c3cn[nH]c3)cc12 (relative stereo) [Example 19, rel-(4aS,10bS)-10b-Methyl-9-(1H-pyrazol-4-yl)-4a,5,6,10b-tetrahydro-4H-naphtho[1,2-d][1,3]thiazin-2-amine, bis(2,2,2-trifluoroacetate)] | 8 µM |
| Cc1cc(-c2ccc3c(c2)[C@@]2(C)N=C(N)SC[C@H]2CC3)n(C)n1 (relative stereo) [Example 20, rel-(4aS,10bS)-9-(1,3-Dimethyl-1H-pyrazol-5-yl)-10b-methyl-4a,5,6,10b-tetrahydro-4H-naphtho[1,2-d][1,3]thiazin-2-amine, bis(2,2,2-trifluoroacetate)] | > 30 µM |
| CC#Cc1cncc(-c2ccc3c(c2)[C@@]2(C)N=C(N)SC[C@H]2CC3)c1 (relative stereo) [Example 21, rel-(4aS,10bS)-10b-methyl-9-(5-(prop-1-yn-1-yl)pyridin-3-yl)-4,5,6,10b-tetrahydro-4H-naphtho[1,2-d][1,3]thiazin-2-amine, bis(2,2,2-trifluoroacetate)] | 1.8 µM |
| CC#Cc1cncc(-c2ccc3c(c2)[C@@]2(C)N=C(N)SC[C@H]2CCO3)c1 (relative stereo) [Example 22, rel-(4aS,11bS)-11b-methyl-10-(5-(prop-1-yn-1-yl)pyridin-3-yl)-4a,5,6,11b-tetrahydro-4H-benzo[2,3]oxepino[4,5-d][1,3]thiazin-2-amine, bis(2,2,2-trifluoroacetate)] | 0.96 µM |
| Cn1cc(-c2ccc3c(c2)[C@@]2(C)N=C(N)SC[C@H]2CCO3)cn1 (relative stereo) [Example 23, rel-(4aS,11bS)-11b-Methyl-10-(1-methyl-1H-pyrazol-4-yl)-4a,5,6,11b-tetrahydro-4H-benzo[2,3]oxepino[4,5-d][1,3]thiazin-2-amine, bis(2,2,2-trifluoroacetate)] | 5.1 µM |
| C[C@]12N=C(N)SC[C@H]1CCOc1ccc(-c3cn[nH]c3)cc12 (relative stereo) [Example 24, rel-(4aS,11bS)-11b-methyl-10-(1H-pyrazol-4-yl)-4a,5,6,11b-tetrahydro-4H-benzo[2,3]oxepino[4,5-d][1,3]thiazin-2-amine, bis(2,2,2-trifluoroacetate)] | 8.1 µM |
| C[C@]12N=C(N)SC[C@H]1CCOc1ccc(-c3cnoc3)cc12 (relative stereo) [Example 25, rel-(4aS,11bS)-10-(Isoxazol-4-yl)-11b-methyl-4a,5,6,11b-tetrahydro-4H-benzo[2,3]oxepino[4,5-d][1,3]thiazin-2-amine, 2,2,2-trifluoroacetate salt] | 18 µM |
